Test [1] relates to Quadruplex DNA. Briefly: Binding affinity to 5' FAM and 3' TAMRA-labeled c-myc G4-quadruplex DNA duplex (unknown origin) assessed as change in melting temperature by fluorescence resonance energy transfer assay. The class given is nucleic-acid assay.
For another test, the target named is Histone deacetylase 1 (Homo sapiens, UniProt Q13547). Briefly: Inhibition of full length recombinant C-terminal GST-tagged human HDAC1 expressed in baculovirus infected Sf9 insect cells incubated for 50 mins by Glo- luminescence assay.
The test system of test [2] is Quadruplex DNA. The test can be described thus: Binding affinity to 5' FAM and 3' TAMRA-labeled […] (unknown origin) assessed as change in melting temperature by fluorescence resonance energy transfer assay. Type of test: nucleic-acid assay.
Test [3] relates to MDA-MB-231. Briefly: Effect on metabolism in human MDA-MB-231 cells assessed as oxygen consumption rate at 2.5 uM measured after 48 hrs by seahorse XF24 analysis. Type of test: functional, cell-based.
The test system of test [4] is Quadruplex DNA. As to conditions: dose 1.0 µM.
Description: Binding affinity to 5' FAM and 3' TAMRA-labeled c-myc G4-quadruplex DNA Pu22 (unknown origin) assessed as change in melting temperature at 1 uM by fluorescence resonance energy transfer assay
In test [5] the test system is MDA-MB-231. Briefly: Stabilization of DNA Pu22 (unknown origin ) in human MDA-MB-231 cells assessed as G4-quadruplex formation by measuring fold change at 1.25 to 5 uM incubated for 48 hrs by immunofluorescence based confocal laser scanning microscopic analysis. The class given is cell-based. The settings on record: dose 1.25-5 µM.
Test [6] has as its system SUM-159-PT. Briefly: Cytotoxicity against human SUM159PT cells harboring wild type BRCA1 and wild type BRCA2 assessed as reduction in cell viability. Type of test: functional, cell-based.
In the next test the target is Histone deacetylase. The test can be described thus: Inhibition of HDAC in human MDA-MB-231 cells incubated for 45 mins by luminescence assay. Type of test: cell-based.
In test [7] the test system is MDA-MB-231. Briefly: Induction of DNA damage in human MDA-MB-231 cells at 1.25 to 5 uM assessed as increase in gamma-H2AX level and measured for 48 hrs by DAPI staining method. The class given is functional, cell-based. As to conditions: dose 1.25-5 µM.
Test [8] relates to MDA-MB-231. Briefly: Antitumor activity against human MDA-MB-231 cells xenografted in BALB/c-nu/nu mouse assessed as increment ratio at 2.5 mg/kg, ip measured for 31 days. Type of test: functional. The settings on record: time 31 day. Background: A xenograft is tissue or cells of one species grown in another, often human tumour cells in immunodeficient mice.
Test [9] has as its target Histone deacetylase (Homo sapiens) (UniProt Q13547+O15379+Q9UBN7+Q92769+Q9UQL6+Q8WUI4+Q9BY41+Q96DB2+P56524+Q9UKV0+Q969S8). Briefly: Inhibition of HDAC in human SUM159PT cells assessed as increase in acetylated alpha-tubulin level at 1.25 to 5 uM by Western blot analysis. Type of test: cell-based. As to conditions: dose 1.25-5 µM.
In test [10] the test system is SUM-159-PT. The test can be described thus: Induction of DNA damage in human SUM159PT at 1.25 to 5 uM assessed as increase in gamma-H2AX level and measured for 48 hrs by DAPI staining method. As to conditions: dose 1.25-5 µM. The class given is functional, cell-based.
The target of test [11] is Quadruplex DNA. The test can be described thus: Binding affinity to 5' FAM-labeled c-myc G4-quadruplex DNA Pu22 (unknown origin) assessed as dissociation constant by surface plasmon resonance assay. The class given is nucleic-acid assay. (In general: In SPR one partner is held on a chip, and binding of the other changes the refractive index at the surface.)
Test [12] relates to BT-549. The test can be described thus: Induction of DNA damage in human BT-549 at 1.25 to 5 uM assessed as increase in gamma-H2AX level and measured for 48 hrs by DAPI staining method. As to conditions: dose 1.25-5 µM. Type of test: functional, cell-based.
The test system of test [13] is MDA-MB-231. Briefly: Cytotoxicity against human MDA-MB-231 cells harboring wild type BRCA1 and wild BRCA2 assessed as reduction in cell viability. The class given is functional, cell-based.
Test [14] in a line: Inhibition of full length recombinant N-terminal GST-tagged human HDAC11 expressed in baculovirus infected Sf9 insect cells incubated for 50 mins by Glo- luminescence assay. Type of test: cell-based.
Test [15] concerns MDA-MB-231. The test can be described thus: Antitumor activity against human MDA-MB-231 cells xenografted in BALB/c-nu/nu mouse assessed as reduction in tumor growth at 2.5 mg/kg, ip measured for 31 days. Type of test: functional, organism-based. As to conditions: time 31.0 day.
Test [16] deals with MDA-MB-231. The test can be described thus: Inhibition of colony formation in human MDA-MB-231 cells measured for 7 days by crystal violet staining based assay. As to conditions: dose 2.5 µM, time 7.0 day, DDE = dose-dependent effect. The class given is functional, cell-based.
Test [17] concerns the target T1, Protein deacetylase HDAC6 (Homo sapiens, UniProt Q9UBN7).
T1 sequence (Q9UBN7 whole entry): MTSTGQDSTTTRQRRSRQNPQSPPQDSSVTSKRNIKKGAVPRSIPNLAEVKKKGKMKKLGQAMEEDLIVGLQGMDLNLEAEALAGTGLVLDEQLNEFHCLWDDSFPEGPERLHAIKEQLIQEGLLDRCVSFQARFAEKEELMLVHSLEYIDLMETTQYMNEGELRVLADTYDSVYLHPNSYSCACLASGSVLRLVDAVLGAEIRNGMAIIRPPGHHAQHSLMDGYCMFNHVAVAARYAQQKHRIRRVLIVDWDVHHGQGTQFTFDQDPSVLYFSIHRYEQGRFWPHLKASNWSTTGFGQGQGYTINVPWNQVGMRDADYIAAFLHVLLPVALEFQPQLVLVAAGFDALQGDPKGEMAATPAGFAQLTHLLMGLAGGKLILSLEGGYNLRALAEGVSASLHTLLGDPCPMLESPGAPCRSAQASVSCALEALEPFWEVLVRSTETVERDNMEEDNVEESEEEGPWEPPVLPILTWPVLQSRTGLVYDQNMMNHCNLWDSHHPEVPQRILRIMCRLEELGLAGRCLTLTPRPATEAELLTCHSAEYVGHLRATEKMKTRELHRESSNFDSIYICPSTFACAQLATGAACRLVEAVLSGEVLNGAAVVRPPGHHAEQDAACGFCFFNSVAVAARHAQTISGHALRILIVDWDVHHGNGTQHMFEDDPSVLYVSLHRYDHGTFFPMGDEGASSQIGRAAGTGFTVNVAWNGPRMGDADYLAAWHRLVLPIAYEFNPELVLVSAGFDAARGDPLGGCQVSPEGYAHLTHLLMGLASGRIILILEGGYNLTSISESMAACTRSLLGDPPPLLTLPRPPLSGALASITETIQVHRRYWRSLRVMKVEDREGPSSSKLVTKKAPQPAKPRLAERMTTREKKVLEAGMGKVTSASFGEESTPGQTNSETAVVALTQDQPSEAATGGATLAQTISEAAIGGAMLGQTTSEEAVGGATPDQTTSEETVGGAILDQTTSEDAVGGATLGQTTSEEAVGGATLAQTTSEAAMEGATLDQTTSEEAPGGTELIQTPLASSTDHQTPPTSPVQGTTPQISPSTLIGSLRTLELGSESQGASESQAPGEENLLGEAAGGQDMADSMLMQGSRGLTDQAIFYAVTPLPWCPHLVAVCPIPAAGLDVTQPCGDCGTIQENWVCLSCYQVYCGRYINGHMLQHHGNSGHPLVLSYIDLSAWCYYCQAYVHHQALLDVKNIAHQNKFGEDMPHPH
The test can be described thus: Inhibition of full length recombinant N-terminal GST-tagged human HDAC6 expressed in baculovirus infected Sf9 insect cells incubated for 50 mins by Glo- luminescence assay.

Test [18] has as its target Quadruplex DNA. Briefly: Binding affinity to […]' FAM-labeled c-myc G4-quadruplex DNA Pu22 (unknown origin) by fluorescence quench assay. Type of test: nucleic-acid assay.
Test [19] relates to BT-549. The test can be described thus: Cytotoxicity against human BT-549 cells harboring wild type BRCA1 and wild type BRCA2 assessed as reduction in cell viability. Type of test: functional, cell-based.
The target of a further test is Histone deacetylase 4 (Homo sapiens, UniProt P56524). Briefly: Inhibition of full length recombinant N-terminal GST-tagged human HDAC4 (612 to end residues)expressed in baculovirus infected Sf9 insect cells incubated for 50 mins by Glo- luminescence assay.

From ChEMBL document CHEMBL5113518, “Discovery of a Novel G-Quadruplex and Histone Deacetylase (HDAC) Dual-Targeting Agent for the Treatment of Triple-Negative Breast Cancer” (J Med Chem, 2022) come the findings set out here.

The structures appear in SMILES notation. pIC50, pKd: −log10 of the molar value. Activity calls are given as the source filed them. No cut-off for these calls is given here.

Chain of Histone deacetylase 1 (Q13547 whole entry): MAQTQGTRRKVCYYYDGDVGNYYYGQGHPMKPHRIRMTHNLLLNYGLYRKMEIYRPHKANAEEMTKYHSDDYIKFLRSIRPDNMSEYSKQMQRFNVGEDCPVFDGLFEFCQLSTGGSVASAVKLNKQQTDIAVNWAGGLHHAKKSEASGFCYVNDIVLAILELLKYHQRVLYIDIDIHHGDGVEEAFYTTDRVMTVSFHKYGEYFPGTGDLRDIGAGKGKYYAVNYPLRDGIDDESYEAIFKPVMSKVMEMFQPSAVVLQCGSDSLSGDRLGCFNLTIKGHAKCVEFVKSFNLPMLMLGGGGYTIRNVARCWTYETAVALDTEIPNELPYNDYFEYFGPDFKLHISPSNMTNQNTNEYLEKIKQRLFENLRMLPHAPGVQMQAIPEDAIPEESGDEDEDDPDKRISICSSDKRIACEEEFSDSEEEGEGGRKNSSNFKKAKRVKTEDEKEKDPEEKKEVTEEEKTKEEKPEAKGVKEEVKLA
Chain of Histone deacetylase 4 (P56524 whole entry): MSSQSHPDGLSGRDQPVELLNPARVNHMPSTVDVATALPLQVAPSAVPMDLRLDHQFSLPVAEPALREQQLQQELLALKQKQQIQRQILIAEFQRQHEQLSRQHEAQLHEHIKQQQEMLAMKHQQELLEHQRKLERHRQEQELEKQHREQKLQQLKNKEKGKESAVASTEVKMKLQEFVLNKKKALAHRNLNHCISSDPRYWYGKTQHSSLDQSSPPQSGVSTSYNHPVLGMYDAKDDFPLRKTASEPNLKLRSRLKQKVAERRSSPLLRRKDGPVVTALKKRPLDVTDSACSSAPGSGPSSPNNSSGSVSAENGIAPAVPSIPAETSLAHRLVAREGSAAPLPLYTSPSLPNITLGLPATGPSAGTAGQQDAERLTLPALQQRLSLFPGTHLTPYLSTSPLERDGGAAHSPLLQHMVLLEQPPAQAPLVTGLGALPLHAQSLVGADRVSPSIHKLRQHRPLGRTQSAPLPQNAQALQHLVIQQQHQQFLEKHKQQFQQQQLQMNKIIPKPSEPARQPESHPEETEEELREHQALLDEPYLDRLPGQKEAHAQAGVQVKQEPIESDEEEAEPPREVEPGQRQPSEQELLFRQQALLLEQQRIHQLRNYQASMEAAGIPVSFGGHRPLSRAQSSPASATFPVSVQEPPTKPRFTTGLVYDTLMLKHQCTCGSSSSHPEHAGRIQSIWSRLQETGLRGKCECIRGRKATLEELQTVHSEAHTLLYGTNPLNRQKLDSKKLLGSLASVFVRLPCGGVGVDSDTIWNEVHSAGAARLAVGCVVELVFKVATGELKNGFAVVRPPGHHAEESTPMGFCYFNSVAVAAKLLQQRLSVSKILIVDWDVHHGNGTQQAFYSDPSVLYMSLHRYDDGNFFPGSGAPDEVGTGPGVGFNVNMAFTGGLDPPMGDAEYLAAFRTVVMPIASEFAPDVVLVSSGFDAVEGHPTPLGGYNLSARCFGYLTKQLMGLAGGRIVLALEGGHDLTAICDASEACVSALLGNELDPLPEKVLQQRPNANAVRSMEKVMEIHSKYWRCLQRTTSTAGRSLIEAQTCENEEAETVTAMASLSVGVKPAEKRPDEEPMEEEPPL

Turning to `CN(C)CCCNC(=O)c1ccc(/C=C2\CCn3c2nc2cc(N4CCN(CCCCCCCC(=O)NO)CC4)c(F)cc2c3=O)cc1.Cl`, the results for the ΔTm with Quadruplex DNA [1], in the test on Quadruplex DNA [2] and in the test with Quadruplex DNA [4] were 0.1 °C, 1.2 °C and 16.7 °C, respectively. The pIC50 on Histone deacetylase 1 is 5.90; with SUM-159-PT [6], 5.13; in the test on MDA-MB-231 [13], 5.39; in [14], 5.86; in test [17], 6.19; with BT-549 [19] it was 5.19. Also, the pIC50 on Histone deacetylase 4 is 5.58. Besides, the result with MDA-MB-231 [3], in the test on MDA-MB-231 [7], in the test on SUM-159-PT [10], in the test on BT-549 [12] and with MDA-MB-231 [15] was Active. In the test on MDA-MB-231 [5], the fold change (FC) turned out to be 8. This compound came in with a 50% inhibitory concentration (IC50) on Histone deacetylase of 1.1 µM. The T/C with MDA-MB-231 [8] turned out to be 36.2%. In addition, the inhibition result in test [9] was “Active”. Moreover, on Quadruplex DNA [11], the pKd is 5.80. Moreover, in the test with MDA-MB-231 [16], the inhibition entry was “Dde”. The DC50 at Quadruplex DNA [18] turned out to be 0.1 µM.

The term ΔTm denotes the shift of the melting midpoint relative to a reference. Broadly, the pIC50 is −log10 of the IC50, conventionally taken in molar units. As a reminder, the IC50 is the concentration that inhibits the measured activity by half. By T/C is commonly meant the result in the treated group divided by that in the control group, in per cent. For orientation: pKd means the Kd on a negative log10 scale, so that one unit is a factor of ten.
